Literature values as cited in patent US20150258078A1 (priority 2014, published 2015).
Like-named read-outs stand apart in the source and are kept apart here.

Tests used:
[1] = system: type 2 diabetic and nondiabetic subjects; conditions: 61.4 micromol/day for 28 days; for VLDL, mean of absolute differences between 0 and 28 day treatment +/- S.E.M. / triacylglycerol, mean of absolute differences between 0 and 28 day treatment +/- S.E.M.: plasma
[2] = system: male inbred BHE (IN-BHE) rats; conditions: after the injection of 300 µg
[3] = system: patients with elevated cholesterol and triglycerides; conditions: multiple clinical trials; daily intakes 600 to 1200 mg/day

In the case of `O=C(O)CCCC[C@@H]1SC[C@@H]2NC(=O)N[C@@H]21` [Biotin], the “VLDL, mean of absolute differences between 0 and 28 day treatment +/- S.E.M.” value ([1]; diabetic group) is given as −0.11+/−0.04, the “triacylglycerol, mean of absolute differences between 0 and 28 day treatment +/- S.E.M.” value ([1]; diabetic group) is given as −0.55+/−0.2 and the “cholesterol, glucose and insulin” value ([1]; diabetic or nondiabetic subjects) is given as “no significant effects”. For the same molecule, the “VLDL, mean of absolute differences between 0 and 28 day treatment +/- S.E.M.” value ([1]; nondiabetic group) was −0.18+/−0.07, the “triacylglycerol, mean of absolute differences between 0 and 28 day treatment +/- S.E.M.” value ([1]; nondiabetic group) was −0.92+/−0.36 and the “plasma levels of lactate and pyruvate” value [2] was “fell”.
For Pantethine, the HDL cholesterol increased [3] is listed as 9%, the total cholesterol decreased [3] is listed as 12% and the triglycerides decreased [3] is listed as 18%.
